Measured values as given in US20210369640A1, “COMPOSITION CONTAINING SESQUITERPENE DERIVATIVE AS ACTIVE INGREDIENT FOR PREVENTION OR TREATMENT OF MUSCLE DISEASES” (INDUSTRY-ACADEMIC COOPERATION FOUNDATION, YONSEI UNIVERSITY, priority 2017, published 2021).

Legend:
[1] = test system: mouse myoblast cell line (C2C12 cells); test: Myotube thickness in dexamethasone-treated mouse myoblasts (Giemsa-Wright staining, ImageJ); type: cell-based; conditions: 100 μM, vs dexamethasone alone; for increase in thickness of myotubes reduced by dexamethasone: co-treated with 50 μM dexamethasone for two days from day 4 of differentiation, quantified using ImageJ
Procedure: A mouse myoblast cell line (C2C12 cells) was purchased from ATCC (Manassas, Va., USA), and the purchased cells were incubated in a 5% CO2 incubator at 37° C. using 10% fetal bovine serum media (Gibco-BRL). When the confluency of the incubated cells became 80%, the myoblasts were allowed to differentiate into myotubes using 2% horse serum media (Gibco-BRL). The mouse myoblasts incubated in Preparation Example 1 were co-treated with 50 dexamethasone (dexa; Sigma) and 100 μM of sesquiterpene derivatives (experimental materials) for two days from day 4 of differentiation of the mouse myoblasts. An experiment was conducted in the same manner as in Example 1, except for treatment with 50 μM of dexamethasone (dexa; Sigma) instead of the sesquiterpene derivatives (experimental materials). […] When the fixing was completed, the myotubes were naturally dried at room temperature for 10 minutes, and then a Giemsa-Wright staining solution (Asan Pharmaceutical, Seoul), which specifically stains myotubes, was dropped onto the myotubes and left for 30 minutes to stain the myotubes. […] Six sections were randomly selected from each well and micrographed, and the thickness of at least […] myotubes from each well was analyzed (three repetitions/group).

MuRF1 = test: RT-PCR of MuRF1 gene expression in dexamethasone-treated mouse myoblasts; type: cell-based; conditions: 100 μM, co-treated with dexamethasone; FIG. 3B
Procedure: (§1) A mouse myoblast cell line (C2C12 cells) was purchased from ATCC (Manassas, Va., USA), and the purchased cells were incubated in a 5% CO2 incubator at 37° C. using 10% fetal bovine serum media (Gibco-BRL). When the confluency of the incubated cells became 80%, the myoblasts were allowed to differentiate into myotubes using 2% horse serum media (Gibco-BRL).
(§2) The mouse myoblasts incubated in Preparation Example 1 were co-treated with 50 dexamethasone (dexa; Sigma) and 100 μM of sesquiterpene derivatives (experimental materials) for two days from day 4 of differentiation of the mouse myoblasts.
(§3) An experiment was conducted in the same manner as in Example 1, except for treatment with 50 μM of dexamethasone (dexa; Sigma) instead of the sesquiterpene derivatives (experimental materials).
(§4) 334 μl of a TRIzol solution per 1×10^7 mouse myoblasts of Example 1 was added and replaced, followed by centrifugation at 12,000×g and 4° C. for 10 minutes. The supernatant was transferred to a new tube and then 67 μl of chloroform was added thereto, followed by vortexing. […] The concentration of the extracted RNA samples was measured at wavelengths of 260 nm and 280 nm using a UV/VIS spectrometer (Beckman Coulter, DU730), and was subjected to agarose gel electrophoresis to confirm the integrity of RNA samples. […]

C57BL/6N mice [2] = test: Four limb hanging test; type: in vivo, mouse; conditions: 200 mpk orally once a day; for hanging time: FIG. 5A; for hanging time multiplied by body weight: FIG. 5B
Text: (§5) 32 5-week-old male C57BL/6N mice (Orient, Korea) were adapted to a laboratory environment for one week with a commercial normal diet (rodent chow), and then randomly divided into four groups (chow vehicle group, chow α-cedrene group, HFD vehicle group, and HFD α-cedrene group) according to a randomized block design and bred for a total of 10 weeks.
(§6) While mice bred in Preparation Example 2 were fed a normal diet for 10 weeks, 200 mpk α-cedrene was orally administered to the mice once a day.
(§7) A procedure was carried out in the same manner as in Example 2, except that the mice were fed a high-fat experimental diet (HFD: 40% high fat energy, 17 g lard+3% corn oil/100 g diet).
(§8) A procedure was carried out in the same manner as in Example 2, except that a vehicle was orally administered instead of 200 mpk α-cedrene, while a commercial normal diet (rodent chow) was ingested.
(§9) A procedure was carried out in the same manner as in Comparative Example 2, except that a high-fat diet (HFD: 40% high fat energy) was ingested.
To measure the limb muscle strength of mice, the time that the mice of Examples 2 and 3 and Comparative Examples 2 and 3 hung upside down using their four feet was measured at week 12 of breeding. The time (seconds) that the mice hung upside down in a cage equipped with a wire mesh cover (diameter <0.5 cm) (20×30×50 cm, Jeung-Do Bio & Plant Co., Ltd, Korea) was measured a total of three times, and a rest period of 30 minutes or longer was given between measurements. Experimental results were obtained by multiplying hanging time (sec) by body weight (kg).

MaFbx/atrogin1 = test: RT-PCR of MaFbx/atrogin1 gene expression in dexamethasone-treated mouse myoblasts; type: cell-based; conditions: 100 μM, co-treated with dexamethasone; FIG. 3B
Procedure: as §1, §2, §3, §4

mouse gastrocnemius = test: H&E staining of muscle tissue, fiber diameter; type: in vivo; conditions: 200 mpk orally once a day, vs vehicle
Text: as §5, §6, §7, §8, §9
Muscle tissues of mice were extracted, fixed in 10% formalin, and then stained with hematoxylin and eosin (H&E) after requesting Korea CFC (Gyeonggi-do, Korea) to do so, and observed using an optical microscope (IX71, Olympus, JPN) and photographed using a digital camera (DP71, Olympus, JPN).

p-p70S6K1 protein = test: Western blotting of p-p70S6K1 in dexamethasone-treated mouse myoblasts; type: cell-based; conditions: 100 μM, co-treated with dexamethasone; FIG. 3A
Procedure: (§10) The mouse myoblasts incubated in Preparation Example 1 were co-treated with 50 dexamethasone (dexa; Sigma) and 100 μM of sesquiterpene derivatives (experimental materials) for two days from day 4 of differentiation of the mouse myoblasts. An experiment was conducted in the same manner as in Example 1, except for treatment with 50 μM of dexamethasone (dexa; Sigma) instead of the sesquiterpene derivatives (experimental materials). To perform western blotting on cells, a lysis buffer containing 500 μL of 100 mM Tris-HCl, pH 7.4, 5 mM EDTA, 50 mM sodium pyrophosphate, 50 mM NaF, 100 mM orthovanadate, 1% Triton X-100, 1 mM phenylmethanesulfonyl fluoride, 2 μg/mL of aprotinin, 1 μg/mL of pepstatin A, and 1 μg/mL of leupeptin was added to each well from which media were removed, the cells were harvested, and then centrifuged at 1,300×g and 4° C. for 20 minutes, and then the middle layer was taken, and the concentrations of proteins were quantified by the Bradford method (Bio-Rad). 40 μg of the quantified proteins were electrophoresed by SDS-polyacrylamide gel, and then the separated proteins were transferred to nitrocellulose membranes (Amersham, Buckinghamshire, UK). […] Bands visualized on the X-ray film were scanned and quantified using Quantity One analysis software (Bio-Rad).

C57BL/6N mice [3] = test: Grip strength test; type: in vivo, mouse; conditions: 200 mpk orally once a day, week 12 of breeding
Text: as §5, §6
A procedure was carried out in the same manner as in Example 2, except that the mice were fed a high-fat experimental diet (HFD: 40% high fat energy, 17 g lard+3% corn oil/100 g diet). […]
The grip strength of the mice of Examples 2 and 3 and Comparative Examples 2 and 3 was measured at week 12 of breeding using a grip strength meter for mice (DJ2-248, Daejong Instrument Industry Co., Ltd., Korea). In particular, a force (N) for mice to hold onto a wire mesh was measured while mounting the four feet of mice on a wire mesh to which a gauge was attached, and pulling the tails of the mice backward. The measurement was successively performed five times, and the maximum value was determined as grip strength. To normalize the experimental results, grip strength (N) divided by body weight […] was calculated.

p-4E-BP1 protein = test: Western blotting of p-4E-BP1 in dexamethasone-treated mouse myoblasts; type: cell-based; conditions: 100 μM, co-treated with dexamethasone; FIG. 3A
Procedure: as §10

[4] = high-fat diet, vs HFD vehicle group
[5] = normal diet, vs chow vehicle group

`C[C@@H]1CC[C@H]2C(C)(C)[C@H]3C[C@@]12CC1OC13C` (some centres unmarked) [cedrene epoxide] was tested, and the “increase in thickness of myotubes reduced by dexamethasone” value [1] was 38%.
In the case of `CC1=CC[C@@]23C[C@@H]1C(C)(C)C2CC[C@H]3C` (stereo partly drawn) [cedrene, α-cedrene], the “expression of MuRF1” value (MuRF1) is reported as “significantly reduced”, the hanging time (C57BL/6N mice [2]; [4]) is reported as “significantly increased” and the “hanging time multiplied by body weight” value (C57BL/6N mice [2]; [4]) is reported as “significantly increased”. For the same molecule, the hanging time (C57BL/6N mice [2]; [5]) was “significantly increased”, the “hanging time multiplied by body weight” value (C57BL/6N mice [2]; [5]) was “significantly increased” and the “expression of MaFbx/atrogin1” value (MaFbx/atrogin1) was “significantly reduced”. For the same molecule, the “increase in fiber diameter of the mouse gastrocnemius” value (mouse gastrocnemius; CHOW group) was 21%, the “increase in fiber diameter of the mouse gastrocnemius” value (mouse gastrocnemius; HFD group) was 27% and the “increase in thickness of myotubes reduced by dexamethasone” value [1] was 58%. The “thickness of myotubes reduced by dexamethasone (visually confirmed, FIG. 1A)” value ([1]; co-treated with dexamethasone) was “increased”, the “amount of p-p70S6K protein reduced by dexamethasone” value (p-p70S6K1 protein) was “significantly increased” and the “increase in grip strength” value (C57BL/6N mice [3]; [4]) was 31%. For the same molecule, the “increase in grip strength” value (C57BL/6N mice [3]; [5]) was 26% and the “amount of p-4E-BP1 protein reduced by dexamethasone” value (p-4E-BP1 protein) was “significantly increased”.
With `CC1=CCC23CC1C(C)(CO)C2CCC3C` (centres unmarked) [cedrenol] the “increase in thickness of myotubes reduced by dexamethasone” value [1] was 43%.
In the case of `C[C@@H]1CC[C@H]2C(C)(C)[C@H]3C[C@@]12CC[C@@]3(C)O` [cedrol], the “increase in thickness of myotubes reduced by dexamethasone” value [1] is reported as 40%.
`CC(=O)O[C@]1(C)CC[C@@]23C[C@@H]1C(C)(C)[C@@H]2CC[C@H]3C` [cedryl acetate] was tested, and the “increase in thickness of myotubes reduced by dexamethasone” value [1] was 51%.
With `CC(=O)C1=C(C)[C@@H]2C[C@@]3(C1)[C@H](C)CC[C@H]3C2(C)C` [methyl cedryl ketone] the “increase in thickness of myotubes reduced by dexamethasone” value [1] was 32%.
With `C=C1CC[C@@]23C[C@@H]1C(C)(C)C2CC[C@H]3C` (stereo partly drawn) [β-cedrene] the “increase in thickness of myotubes reduced by dexamethasone” value [1] was 36%.
